The text below walks through data of patent US20110275685A1, “SALT AND POLYMORPHS OF A KINESIN INHIBITOR COMPOUND” (priority 2009, published 2011).

By solubility is commonly meant the dissolved amount per volume that the medium holds.

A short description of data set [1]: Stability of liquid formulations of the salts. Particulars: for stability in DMSO: either diluted or not.
Protocol: From the mesylate, tosylate and hippurate salts as prepared above, liquid formulations were prepared by dissolving/suspending these salts in a solvent/suspension medium. Stability tests were made on these liquid formulations. The amount of degradation products and the degree of discoloration were established.
Data set [2] is described as follows: Weight loss on drying by thermogravimetry (hygroscopicity). The data set is classed as physicochemical. Particulars: for hygroscopicity: judged from weight loss as prepared vs 1 day at 92% relative humidity. The text has this:
The weight loss (%) on drying, measured by thermogravimetry, of the salt as prepared was 1.12%. If kept for 1 day at 92% relative humidity, the weight loss was 1.71%.
The weight loss (%) on drying, measured by thermogravimetry, of the salt as prepared was 2.08%. If kept for 1 day at 92% relative humidity, the weight loss was 2.21%.
The weight loss (%) on drying, measured by thermogravimetry, of the salt as prepared was 1.76%. If kept for 1 day at 92% relative humidity, the weight loss was 2.14%.

A short description of data set [3]: Solid state stability of the salts (HPLC, colour). The settings on record: Bulk (HPLC).
Description: Tests for solid state stability were made for the mesylate, tosylate and hippurate salts as prepared above.
Data set [4] can be described thus: Solubility of the obtained material. Particulars: thermodynamic from solid. The data set is classed as physicochemical. The method, then: 2.40 g of amorphous N-((S)-3-amino-4-fluorobutyl)-N-((R)-1-(1-benzlyl-4-(2,5-difluoro-phenyl)-1H-imidazol-2-yl)-2,2-dimethylpropyl)-2-hydroxyacetamide were dissolved at 50° C. in 9 ml acetonitrile/water 95:5 v/v having a water activity of 0.6, and stirred. Within about 1 minute, a suspension was formed. Another 6 ml of acetonitrile/water 95:5 v/v were added. Subsequently, the suspension was cooled to room temperature in about 1 hour and stirred for 14 hours. Then, the suspension was filtered and air dried for about 5 minutes. Yield: 1.82 g (75%). The obtained material was analyzed by X-ray diffraction (FIG. 1).

Where [5] appears, read: 0.1% solutions or suspensions, 1 week, 50° C., Methanol.
The mark [6] stands for this setting: 0.1% solutions or suspensions, 1 week, 50° C., pH 3.
[7] abbreviates: 0.1% solutions or suspensions, 1 week, 50° C., pH 4.5.
[8] abbreviates: 0.1% solutions or suspensions, 1 week, 50° C., pH 5.
[9] abbreviates: 0.1% solutions or suspensions, 1 week, 50° C., pH 7.
Where [10] appears, read: 2% solutions or suspensions, 1 day, room temperature, DMSO.
[11] abbreviates: 2% solutions or suspensions, 1 day, room temperature, Dilution pH 6.8 (diluted with buffer 1:100).
Setting [12] is: 5% solutions, 1 day, room temperature, DMSO.
[13] abbreviates: 5% solutions, 1 day, room temperature, Dilution pH 6.8.
Setting [14] is: 2 weeks, 50° C., tight container.
The mark [15] stands for this setting: Xenon light (approx. 1200 kLuxh).

Structures can show the parent of a compound that is named as a salt. Where two headings read alike, the source gives them in different places.

Take `CC(C)(C)[C@H](c1nc(-c2cc(F)ccc2F)cn1Cc1ccccc1)N(CC[C@H](N)CF)C(=O)CO` [Hippurate, N-((S)-3-amino-4-fluorobutyl)-N-((R)-1-(1-benzlyl-4-(2,5-difluorophenyl)-1H-imidazol-2-yl)-2,2-dimethylpropyl)-2-hydroxyacetamide]: the “Amount of degradation products [%]” value came out at 11.81% in data set [1] (setting [5]); 0.48% in data set [1] (setting [6]); 1.03% in data set [1] (setting [7]); 1.80% in data set [1] (setting [8]); 5.32% in data set [1] (setting [9]); 0.78% in data set [1] (setting [10]). For the same molecule, the “Amount of degradation products [%]” value was 0.82% in data set [1] (setting [11]); 0.94% in data set [1] (setting [12]); 0.84% in data set [1] (setting [13]); 1.02% in data set [3] (2 weeks, 50° C., 75% r.h.); 0.79% in data set [3] (setting [14]); 0.43% in data set [3] (setting [15]). Further, the “stability in DMSO” value in data set [1] was “very stable”. Moreover, the hygroscopicity result in data set [2] is “low hygroscopicity”. Besides, the “weight loss (%) on drying, measured by thermogravimetry” value (from here on “weight loss (%) on drying, measured”) in data set [2] (kept for 1 day at 92% relative humidity, listed as hippurate salt) is 2.14%; in data set [2] (salt as prepared, listed as hippurate salt), 1.76%.
`CC(C)(C)[C@H](c1nc(-c2cc(F)ccc2F)cn1Cc1ccccc1)N(CC[C@H](N)CF)C(=O)CO` [Mesylate, N-((S)-3-amino-4-fluorobutyl)-N-((R)-1-(1-benzlyl-4-(2,5-difluorophenyl)-1H-imidazol-2-yl)-2,2-dimethylpropyl)-2-hydroxyacetamide]: the “Amount of degradation products [%]” value is 0.21% in data set [1] (setting [5]); 0.25% in data set [1] (setting [6]); 0.69% in data set [1] (setting [7]); 0.71% in data set [1] (setting [8]); 3.87% in data set [1] (setting [9]); 0.07% in data set [1] (setting [10]). The “Amount of degradation products [%]” value in data set [1] (setting [11]) is listed as 0.19%; in data set [1] (setting [12]), below 0.05%; in data set [1] (setting [13]), 0.30%; in data set [3] (2 weeks, 50° C., 75% r.h.) it was below 0.05%; in data set [3] (setting [14]), 0.07%; in data set [3] (setting [15]), below 0.05%. Also, in data set [1], the “stability in DMSO” value is given as “very stable”. The stability in methanol entry in data set [1] (in methanol) is on record as “very stable”. Further, in data set [2], the hygroscopicity result is recorded as “low hygroscopicity”. The “weight loss (%) on drying, measured” value came to 2.21% in data set [2] (kept for 1 day at 92% relative humidity, listed as mesylate salt) and 2.08% in data set [2] (salt as prepared, listed as mesylate salt).
With `CC(C)(C)[C@H](c1nc(-c2cc(F)ccc2F)cn1Cc1ccccc1)N(CC[C@H](N)CF)C(=O)CO` [Tosylate, N-((S)-3-amino-4-fluorobutyl)-N-((R)-1-(1-benzlyl-4-(2,5-difluorophenyl)-1H-imidazol-2-yl)-2,2-dimethylpropyl)-2-hydroxyacetamide], the hygroscopicity entry in data set [2] was “low hygroscopicity”. For the same molecule, the “weight loss (%) on drying, measured” value in data set [2] (kept for 1 day at 92% relative humidity, listed as tosylate salt) is given as 1.71%; in data set [2] (salt as prepared, listed as tosylate salt) it was 1.12%. Further, the “Amount of degradation products [%]” value reads like this: (1 week, 0.1 %) 0.35%; (1 week, 0.1 %, pH 3) 0.27%; (1 week, 0.1 %, pH 4.5) 0.59%; (1 week, 0.1 %, pH 5) 1.81%; (1 week, 0.1 %, pH 7) 7.60%; (1 day, 0.02 %, pH 6.8) 0.33%. In addition, the “Amount of degradation products [%]” value is reported as 0.14% (1 day, 2 %); 0.15% (1 day, 5 %); 0.11% (1 day, pH 6.8).
For the molecule `CC(C)(C)[C@H](c1nc(-c2cc(F)ccc2F)cn1Cc1ccccc1)N(CC[C@H](N)CF)C(=O)CO` [crystalline form D, N-((S)-3-amino-4-fluorobutyl)-N-((R)-1-(1-benzlyl-4-(2,5-difluorophenyl)-1H-imidazol-2-yl)-2,2-dimethylpropyl)-2-hydroxyacetamide mesylate], the solubility in data set [4] (0.1 N HCl, pH 1, simulated gastric fluid, read-out: solubility in 0.1 N HCl) is 1400 µg/mL; in data set [4] (buffer pH 6.8, pH 6.8, aqueous buffer, read-out: solubility in buffer with pH 6.8), 10 µg/mL; in data set [4] (water, read-out: solubility in water) it was 4400 µg/mL.
